Reference: patent US11325937B2, “Glycoside compound and preparation method therefor, composition, application, and intermediate” (SHANGHAI HUTCHISON PHARMACEUTICALS LIMITED, priority 2018, dated 2022)

What was measured:
[1] = test system: rats with middle cerebral artery occlusion (MCAO); experiment: Acute cerebral infarction model in rats with middle cerebral artery occlusion (MCAO); type: in vivo, male SD rats; details: Rattus norvegicus, ip, 72 h, MCAO, intraperitoneal injection, TTC staining after 3 days, read-out: ED50 for infarction inhibition rate (%)
Text: (§1) After obtaining the active molecules that can promote the expression of VEGF-A mRNA in the animal model of inflammatory angiogenesis, a rat model of cerebral infarction was used for further verification. Following the method as described in Longa, E. Z., Longa, E. Z., Weinstein, P. R., Carlson, S. & Commin, R. Reversible middle cerebral artery occlusion without craniectomy in rats. [J]. Stroke, 1989. 1: 84-91, an acute cerebral infarction model was established in rats with middle cerebral artery occlusion (MCAO); and following the method as described in C. dela Torre, T. Fortin, G. A. S. Park, K. S. Butler, P. Kozlowski, B. A. Pappas, H. de Socarraz, J. K. Saunders and M. T. Richard. [J]. Brain Research, 1992. 582:186-195, a chronic cerebral ischemia model was established in rats with permanent ligation of bilateral common carotid arteries (2VO). The inhibition on cerebral infarction and neuroprotection for brain injury of the active molecules screened in Effect Example 2 were verified.
The control drugs were: Edaravone (purchased from Zhejiang Shengtong Biotechnology Co., Ltd.), Clopidogrel bisulfate (purchased from Wuhan Yuancheng Gongchuang Technology Co., Ltd.), and Salvianolate (purchased from Henan Provincial People's Hospital). Clopidogrel bisulfate is a platelet aggregation inhibitor, and Edaravone is a brain protectant (free radical scavenger). The MCAO model of rats was made by the thread occlusion method. The rats used in this effect example were male SD rats weighing 280-320 grams, purchased from Shanghai SLAC Laboratory Animal Co., Ltd. Five SD (Sprague Dawley) rats in each group were administered by intraperitoneal injection, 2 h before surgery, and every 24 h after modeling.
Three days later, the brain was taken, and the rat brain was stained with TTC (2,3,5-triphenyltetrazolium chloride, to detect the cell viability) and then photographed. Infarction rate (%)=(Non-infarction area of right brain section−non-infarction area of left brain section)/total area of brain section*100%. According to t tests, *P<0.05, **P<0.01, ***P<0.001 compared with the model group (MCAO). Infarction inhibition rate (%) at different doses=(infarction rate of model group-infarction rate of treatment group)/infarction rate of model group*100%. The infarction inhibition rate at different doses was plotted, and the ED50 of the drug was calculated.
Moreover, the body weight of the rats was recorded. The rate of body weight change was calculated according to a formula: Rate of body weight change (%)=(final weight-initial weight)/[…].
Three days after the acute cerebral infarction model was established in rats with MCAO, the test rats were scored for neurological function according to the Longa nerve scoring standard.
Three days after the acute cerebral infarction model of MCAO was established in rats, the intact brain tissue was taken out, olfactory bulb and the brain tissue that is 4 mm in front of the frontal pole was removed, and the immediately adjacent brain tissue of 2 mm thick was taken for water content measurement in the brain. The water content in brain tissue is calculated by the formula: (WW−DW)/WW×100%, where WW is the wet weight and DW is the dry weight. Three days after the acute cerebral infarction model of MCAO was established in rats, the brain tissue was stained with Evans Blue (EB, a commonly used azo dye preparation) to evaluate the permeability across the blood-brain barrier (BBB), so as to evaluate the integrity of blood-brain barrier. Both experiments were tested with the optimal dose of each drug previously determined: TG-028 (5 mg/Kg), Salvianolate (20 mg/Kg), Clopidogrel bisulfate (40 mg/Kg), Edaravone (40 mg/Kg).

[2] = test system: rats with permanent ligation of bilateral common carotid arteries (2VO); experiment: Chronic cerebral ischemia model in rats with permanent ligation of bilateral common carotid arteries (2VO); type: in vivo
Text: as §1
In the later period of the present invention, a chronic cerebral ischemia model was established in rats with permanent ligation of bilateral common carotid arteries (2VO). TG-028 (5 mg/kg) was administered to 5 rats in each group daily by intraperitoneal injection for 3 weeks. The effects of TG-028 and the control drug Edaravone (40 mg/kg) in the rat model of chronic cerebral ischemia were observed.
3 weeks after the establishment of the rat model of 2VO chronic cerebral ischemia, the Morris water maze experiment was performed on the test rats to determine the effects of drugs on animal learning and memory. The test rats were subjected to ambient positioning and memory training for 5 days. On Day 5 of the training, a positioning navigation experiment was carried out, and the duration for each group of rats from the time of entering the water from different water entry points facing the pool wall to the time of finding the platform, that is, the escape incubation period, was recorded. On Day 6, the platform was removed and a space exploration experiment was carried out. The swimming time of the rats in the target quadrant, the dwell time in the target quadrant, the distance in the target quadrant, and the number of passes through the platform were recorded in 120 s from the time of entering water from a quadrant opposing the target quadrant. The results of the water maze positioning and navigation experiment are shown in FIG. 8 (where Sham is a sham operation group).
After permanent ligation of the bilateral common carotid arteries, a 5-day positioning training was carried out, and […] Morris water maze space exploration experiment was performed after the training.

VEGF-A mRNA = experiment: Sponge implanted animal model of inflammatory angiogenesis: VEGF-A mRNA expression; type: in vivo, male C57/BL6 mice; details: for activity in promoting VEGF-A mRNA expression compared with Salvianolate (in words): positive control Salvianolate 60 mg/kg/d, sponge implanted mice, 2 weeks
Text: The target pro-angiogenic compounds TG-052, TG-053, TG-054, TG-028, and TG-055 obtained in Effect Example 1 that perform well at the cellular level were further screened for the active molecules that promote VEGF-A mRNA expression in the “sponge implanted animal model” of inflammatory angiogenesis. […] This model can well reflect the expression of VEGF-A mRNA in macrophages recruited around inflammation.
A sponge implanted mouse model was established following the method as described in Zhang J, Modi Y, and Yarovinsky T, et al. Macrophage β2 integrin-mediated, HuR-dependent stabilization of angiogenic factor-encoding mRNAs in inflammatory angiogenesis. [J]. American Journal of Pathology, 2012. 180(4): 1751-1760. The mice used in the present invention was male C57/BL6 mice aged 6-8 weeks and weighing 20-25 g, purchased from Shanghai SLAC Laboratory Animal Co., Ltd, Production License No: SCXK (Shanghai) 2013-0016. The compound screened in Effect Example 1 was weighed according to the amount intended to be used in two weeks, and then mixed with a gel matrix and a solvent to prepare a sustained-release gel of the compound (see Patent Application No.: CN201610168493.9 for the details of the preparation method of the sustained-release gel and the model establishment and detection methods). The specific steps were as follows. A certain amount of the compound obtained in Effect Example 1 was weighed into a 1.5 mL EP tube, and then a certain amount of poly-L-lactic acid (PLLA) with a weight average molecular weight of less than 10,000 was weighed and mixed with the compound (at a weight ratio of the compound to PLLA of 0.5:1 to 2:1). Finally a certain amount of DMSO (less than 100 microliters) was added, spun, mixed well, and then sealed with a sealing film. After continuous ultrasonication at 200 W and 25° C. for 5 h, a sustained-release gel of the compound was obtained, which was stored at 4° C. for later use.
The prepared sustained-release gel can release the drug completely within 2 weeks. The sustained-release gel and sponge were both subcutaneously implanted in the mice at the back. After 2 weeks, the sponge was taken out, and the residual tissue and fur were removed. The sponge was transferred to a cell culture plate containing 10 mL of DMEM medium containing collagenase (Collagenase:DMEM=10 mg/10 mL), cut, and incubated for 1 h in a cell incubator. Then the culture medium containing sponge debris was filtered, and the resulting filtrate was centrifuged. The supernatant was discarded, and 500 μL of Trizol reagent was added to the pellet, and mixed uniformly by blowing. Then the liquid was transferred to a 1.5 mL EP tube, and stored at −80° C. RNA was extracted according to a conventional method, and the RNA concentration was determined using a microvolume nucleic acid and protein analyzer (Nanodrop2000c). The required volume V of RNA was calculated according to the RNA concentration, and the RNA reverse transcription reaction system was prepared according to Table 1. Then RNA reverse transcription (cDNA synthesis) was carried out according to the conditions described in Table 2. The resulting cDNA was used to prepare a fluorescence quantitative qPCR reaction solution according to Table 3. The fluorescence quantitative qPCR reaction conditions were set according to Table 4, and the fluorescence quantitative PCR reaction was performed using cDNA from the reverse transcription reaction as a template. The relative expression level 2^−ΔΔCt of the target gene was calculated from the Ct value of each sample with the blank group as a control and β-Actin as an internal reference. The expression level of VEGF-A mRNA in the cells extracted from the sponge was observed after 2 weeks. […]

[3] = test system: VEGF-A mRNA expression in macrophages (RAW264.7); experiment: In vitro macrophage experiment: activity of compounds to promote VEGF-A mRNA expression (RT-qPCR); type: cell-based; details: Mus musculus, RAW264.7 macrophages, 3 h, relative expression, no drug = 1, read-out: Expression level of VEGF-A mRNA; for fold induction at 500 µM: 0.5 mM; for fold induction at 1000 µM: 1 mM; for fold induction at 2000 µM: 2 mM; for fold induction at 3000 µM: 3 mM; for fold induction at 4000 µM: 4 mM
How it was run: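 RAW264.7 macrophages were exposed to test compounds at various concentrations for 3 h at 37° C. VEGF-A mRNA was measured by SYBR Green RT-qPCR, normalized to β-Actin, and expressed as 2^−ΔΔCt relative to untreated cells (=1). Activity is the maximal fold induction, with ≥4 as hit criterion.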

Compound | ED50 [1] [mg/kg] | HE staining and Nissl staining of brain sections, hippocampal CA3 neurons (in words) ([2]; 3 weeks after chronic cerebral ischemia, compared with 2VO+NaCl, FIG. 10) | Morris water maze positioning and navigation: escape incubation period and total distance (in words) ([2]; TG-028 5 mg/kg, Edaravone 40 mg/kg, 3 weeks of administration, FIG. 8) | Morris water maze space exploration: number of passes through the platform compared with 2VO+NaCl group ([2]; TG-028 5 mg/kg, Edaravone 40 mg/kg, 3 weeks, FIG. 9) | change in body weight compared with sham operation group (in words) ([2]; TG-028 5 mg/kg, Edaravone 40 mg/kg, i.p. daily, after 1 week, FIG. 7) | activity in promoting VEGF-A mRNA expression compared with Salvianolate (in words) (VEGF-A mRNA) | fold induction at 500 µM [3] | fold induction at 1000 µM [3] | fold induction at 2000 µM [3] | fold induction at 3000 µM [3] | fold induction at 4000 µM [3] | expression of VEGF-A mRNA (in words) (VEGF-A mRNA; various doses, alone, FIG. 19) | fold induction at 100 µM ([3]; 0.1 mM)
CC1=NN(c2ccccc2)C(=O)C1 [Edaravone, reference compound] | 25.7 | cell morphology in the 2VO+Edaravone group is also improved | different from those of the 2VO+NaCl group | no significant difference | no significant weight increase compared with the sham operation group | – | – | – | – | – | – | – | –
COc1ccc(CCO[C@@H]2O[C@H](CO)[C@@H](O)[C@H](O)[C@H]2O)cc1 [TG-053] | – | – | – | – | – | slightly lower activity in promoting the VEGF-A mRNA expression | 11.2 | 13.4 | 6.82 | 1.32 | 1.8 | – | –
COc1ccc(CCCO[C@@H]2O[C@H](CO)[C@@H](O)[C@H](O)[C@H]2O)cc1 [TG-054] | – | – | – | – | – | slightly lower activity in promoting the VEGF-A mRNA expression | 3.63 | 12.4 | 6.5 | 1.21 | 2.01 | – | –
OC[C@H]1O[C@@H](OCCc2ccc(O)cc2)[C@H](O)[C@@H](O)[C@@H]1O [TG-056, salidroside, reference compound] | – | – | – | – | – | – | 1.74 | 2.24 | 6.7 | 2.31 | – | very low expression of VEGF-A mRNA | 0.72
